Consider 13 compounds from ChEMBL document CHEMBL1681764, “Isolation, structure identification and SAR studies on thiosugar sulfonium salts, neosalaprinol and neoponkoranol, as potent α-glucosidase inhibitors” (Bioorg Med Chem, 2011).

Some results are limits rather than exact numbers.

Experiment [1] addresses T1, Sucrase-isomaltase, intestinal (Rattus norvegicus, UniProt P23739). Briefly: Inhibition of rat intestinal isomaltase.
The target in experiment [2] is T1, Sucrase-isomaltase, intestinal. Briefly: Inhibition of rat intestinal sucrase.
Experiment [3] addresses Sucrase-isomaltase, intestinal (Rattus norvegicus) (UniProt P23739). Briefly: Inhibition of rat intestinal sucrase at >384 uM.
The target of experiment [4] is Lysosomal alpha-glucosidase (Rattus norvegicus) (UniProt Q6P7A9). Briefly: Inhibition of rat intestinal maltase at >384 uM.
Sequence of Lysosomal alpha-glucosidase (Rattus norvegicus) (Q6P7A9 whole entry): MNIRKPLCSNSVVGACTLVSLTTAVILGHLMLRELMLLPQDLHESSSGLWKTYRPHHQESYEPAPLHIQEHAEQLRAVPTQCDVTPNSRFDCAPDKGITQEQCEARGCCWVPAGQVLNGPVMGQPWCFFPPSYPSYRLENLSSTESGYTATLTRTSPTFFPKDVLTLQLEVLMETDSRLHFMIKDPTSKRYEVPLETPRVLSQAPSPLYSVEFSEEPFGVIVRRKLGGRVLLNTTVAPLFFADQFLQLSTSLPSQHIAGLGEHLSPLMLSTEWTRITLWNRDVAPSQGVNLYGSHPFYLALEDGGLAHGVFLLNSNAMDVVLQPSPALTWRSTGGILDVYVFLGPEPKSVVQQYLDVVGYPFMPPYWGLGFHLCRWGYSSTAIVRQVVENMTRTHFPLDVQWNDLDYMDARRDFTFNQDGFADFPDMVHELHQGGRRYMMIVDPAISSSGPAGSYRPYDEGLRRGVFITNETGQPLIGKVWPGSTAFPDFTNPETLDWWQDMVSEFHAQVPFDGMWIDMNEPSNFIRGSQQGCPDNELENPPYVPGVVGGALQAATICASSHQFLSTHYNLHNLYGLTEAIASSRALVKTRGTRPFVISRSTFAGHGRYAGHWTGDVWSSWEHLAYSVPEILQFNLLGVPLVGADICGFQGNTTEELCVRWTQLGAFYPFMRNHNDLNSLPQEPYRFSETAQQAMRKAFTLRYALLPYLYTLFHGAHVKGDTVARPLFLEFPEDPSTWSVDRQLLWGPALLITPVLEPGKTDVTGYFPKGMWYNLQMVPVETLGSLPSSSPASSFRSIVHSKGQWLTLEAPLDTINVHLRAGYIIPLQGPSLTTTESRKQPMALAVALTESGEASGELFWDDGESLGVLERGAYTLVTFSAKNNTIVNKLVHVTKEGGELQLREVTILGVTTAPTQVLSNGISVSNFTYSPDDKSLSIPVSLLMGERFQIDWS

T1 sequence (P23739 1-1013 limits assumed): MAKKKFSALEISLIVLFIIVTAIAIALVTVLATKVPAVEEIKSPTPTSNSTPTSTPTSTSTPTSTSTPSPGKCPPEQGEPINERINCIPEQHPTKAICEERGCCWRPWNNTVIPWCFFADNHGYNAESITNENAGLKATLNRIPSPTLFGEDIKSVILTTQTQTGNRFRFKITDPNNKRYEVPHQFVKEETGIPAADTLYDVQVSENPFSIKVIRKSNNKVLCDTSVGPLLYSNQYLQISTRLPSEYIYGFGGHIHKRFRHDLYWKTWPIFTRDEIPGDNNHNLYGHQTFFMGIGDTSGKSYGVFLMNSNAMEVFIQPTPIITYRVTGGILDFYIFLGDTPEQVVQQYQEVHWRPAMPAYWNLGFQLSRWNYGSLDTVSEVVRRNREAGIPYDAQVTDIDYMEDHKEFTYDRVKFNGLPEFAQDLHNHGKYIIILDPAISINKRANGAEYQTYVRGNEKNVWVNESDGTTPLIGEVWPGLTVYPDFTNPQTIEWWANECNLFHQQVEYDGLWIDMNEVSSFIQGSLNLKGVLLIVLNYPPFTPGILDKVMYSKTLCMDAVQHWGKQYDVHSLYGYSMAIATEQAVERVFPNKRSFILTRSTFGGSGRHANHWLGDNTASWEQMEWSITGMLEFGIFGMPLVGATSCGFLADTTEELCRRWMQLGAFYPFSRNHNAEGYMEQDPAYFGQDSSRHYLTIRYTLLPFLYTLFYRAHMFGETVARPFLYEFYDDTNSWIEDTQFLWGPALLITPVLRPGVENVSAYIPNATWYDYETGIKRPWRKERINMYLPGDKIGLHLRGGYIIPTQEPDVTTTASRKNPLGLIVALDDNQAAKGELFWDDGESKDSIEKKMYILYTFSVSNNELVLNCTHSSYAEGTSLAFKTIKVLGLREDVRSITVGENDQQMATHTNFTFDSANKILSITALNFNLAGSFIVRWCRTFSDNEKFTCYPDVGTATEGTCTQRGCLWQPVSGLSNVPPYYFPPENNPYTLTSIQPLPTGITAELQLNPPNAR
T1 sequence (P23739 1014-1841 limits assumed): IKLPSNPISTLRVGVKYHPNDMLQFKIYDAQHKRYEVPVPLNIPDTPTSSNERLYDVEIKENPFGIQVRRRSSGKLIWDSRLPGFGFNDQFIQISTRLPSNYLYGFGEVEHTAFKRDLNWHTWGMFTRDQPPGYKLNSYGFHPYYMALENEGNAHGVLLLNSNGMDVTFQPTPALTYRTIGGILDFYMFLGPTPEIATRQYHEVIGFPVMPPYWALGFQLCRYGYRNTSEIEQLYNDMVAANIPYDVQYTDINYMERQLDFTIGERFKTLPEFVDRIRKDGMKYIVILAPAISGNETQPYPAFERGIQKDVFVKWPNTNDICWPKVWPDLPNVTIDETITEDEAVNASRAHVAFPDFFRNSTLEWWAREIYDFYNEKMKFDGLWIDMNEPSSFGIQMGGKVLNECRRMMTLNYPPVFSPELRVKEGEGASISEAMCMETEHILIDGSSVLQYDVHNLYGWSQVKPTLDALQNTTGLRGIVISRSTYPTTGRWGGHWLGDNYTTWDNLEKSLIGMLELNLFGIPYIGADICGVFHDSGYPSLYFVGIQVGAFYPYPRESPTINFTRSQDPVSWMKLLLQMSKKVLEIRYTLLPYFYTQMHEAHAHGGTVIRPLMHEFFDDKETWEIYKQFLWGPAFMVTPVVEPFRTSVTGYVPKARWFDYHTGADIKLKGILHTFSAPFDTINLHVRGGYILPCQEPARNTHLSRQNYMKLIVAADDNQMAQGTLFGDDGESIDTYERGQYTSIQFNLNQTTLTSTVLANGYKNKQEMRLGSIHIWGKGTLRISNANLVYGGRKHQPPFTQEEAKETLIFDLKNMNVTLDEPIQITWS
Sequence of Sucrase-isomaltase, intestinal (Rattus norvegicus) (P23739 1-1013 limits assumed): as the sequence (P23739 1-1013 limits assumed) above
Sequence of Sucrase-isomaltase, intestinal (Rattus norvegicus) (P23739 1014-1841 limits assumed): as the sequence (P23739 1014-1841 limits assumed) above

On to `OC[C@@H](O)[C@@H](O)[C@H](O)[C@H](O)C[S@+]1C[C@@H](O)[C@H](O)[C@H]1CO`, for which the figures for the IC50 in experiment [1] and in experiment [2] were 1000 nM and 2900 nM, respectively.
For `O=S(=O)([O-])OC[C@@H](O)C[S@+]1C[C@@H](O)[C@H](O)[C@H]1CO`, in that order: more than 329000 nM and more than 329000 nM.
Consider `OC[C@@H](O)C[S@+]1C[C@@H](O)[C@H](O)[C@H]1CO`, for which the IC50 in experiment [1] is 52900 nM; in experiment [2], more than 384000 nM. Moreover, the inhibition in experiment [3] was 34.5%.
Take `OC[C@@H]1[C@@H](O)[C@H](O)C[S@@+]1C[C@@H](O)[C@H](O)[C@H](O)[C@@H](O)CO`: the IC50 in experiment [1] was found to be 1000 nM; in experiment [2], 300 nM.
For `O=S(=O)([O-])O[C@@H]([C@H](O)[C@H](O)[C@@H](O)CO)[C@H](O)C[S+]1C[C@@H](O)[C@H](O)[C@H]1CO` (stereo partly drawn) [KOTALANOL], in that order: 5700 nM and 750 nM.
Take `OC[C@@H]1[C@@H](O)[C@H](O)C[S@@+]1C[C@@H](O)[C@@H](O)[C@H](O)[C@H](O)[C@@H](O)CO` [NEOKOTALANOL]: the half-inhibitory concentration (IC50) is 1800 nM in experiment [1] and 4500 nM in experiment [2].
For `OC[C@@H]1[C@@H](O)[C@H](O)C[S@@+]1C[C@@H](O)[C@@H](O)[C@H](O)[C@@H](O)CO` [NEOPONKORANOL] the same measures were 1400 nM and 1000 nM.
For `[O-][C@@H](CO)[C@H](O)C[S@+]1C[C@@H](O)[C@H](O)[C@H]1CO` [NEOSALACINOL], in that order: 300 nM and 1300 nM.
As for `OC[C@H](O)C[S@+]1C[C@@H](O)[C@H](O)[C@H]1CO` [NEOSALAPRINOL], the IC50 stood at 6500 nM in experiment [1] and 90000 nM in experiment [2]. The compound further came in with an inhibition in experiment [4] of 35%.
Take `O=S(=O)([O-])O[C@@H]([C@H](O)[C@@H](O)CO)[C@H](O)C[S@+]1C[C@@H](O)[C@H](O)[C@H]1CO` [PONKORANOL]: the results for the IC50 in experiment [1] and in experiment [2] were 2600 nM and 290 nM, respectively.
For `O=S(=O)([O-])O[C@@H](CO)[C@H](O)C[S@+]1C[C@@H](O)[C@H](O)[C@H]1CO` [SALACINOL] the same measures were 1300 nM and 1600 nM.
For `O=S(=O)([O-])OC[C@H](O)C[S@+]1C[C@@H](O)[C@H](O)[C@H]1CO` [SALAPRINOL], in that order: 15000 nM and more than 329000 nM.
For `OCC(CO)N[C@H]1C[C@](O)(CO)[C@@H](O)[C@H](O)[C@H]1O` [VOGLIBOSE], in that order: 2100 nM and 200 nM.
